According to ChEMBL document CHEMBL1201862, “PubChem BioAssay data set” (2004):
Activity calls are given as the source filed them.

Assays:
[1] = DRD fibroblast viability loss – cell-based, non-viral oncogenic, luminescence, dose response (AID 1934); format: functional; settings: Homo sapiens
BJ [2] = assay: BJ-TERT-LT-ST fibroblast viability loss – cell-based, RAS-independent, luminescence, dose response (AID 1935); format: functional; settings: Homo sapiens;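 note: BJ fibroblasts immortalized with TERT plus LT and ST oncogenes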
BJ [3] = assay: cells; format: functional, cell-based; settings: Homo sapiens
BJ [4] = assay: growth inhibition of engineered Ras-driven BJ cells – cell-based, alamar blue fluorescence, cherrypicked samples, dose response (AID 2631); format: functional; settings: Homo sapiens;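 note: confirmatory dose-response assay in RAS-dependent BJ fibroblasts engineered with TERT, LT and ST, with cytotoxicity read by fluorescence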
[5] = HEK-293T viability loss after treatment – luminescence, T-cell screen hits, cytotoxicity control for TCR NF-kB inhibitor project, dose response (AID 489026); format: functional, cell-based;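 note: cells exposed to compound about 14 hours before the viability readout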
BJ [6] = assay: BJ-TERT fibroblast viability loss – cell-based, RAS-independent, luminescence, dose response (AID 1933); format: functional; settings: Homo sapiens
HEK293 = assay: EBV LMP1 TES2 canonical NF-kB signalling blockers – cell-based, HEK293, luciferase, cherry-pick, dose response (AID 588343); format: functional; settings: Homo sapiens
Phospholipase A2 = Phospholipase A2 (Homo sapiens, UniProt P04054); format: functional;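 note: confirmatory dose-response counterscreen on phospholipase A2, testing hits that came from an ultra-high-throughput screen for ATG4B inhibitors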
Chain of Phospholipase A2 (P04054 whole entry): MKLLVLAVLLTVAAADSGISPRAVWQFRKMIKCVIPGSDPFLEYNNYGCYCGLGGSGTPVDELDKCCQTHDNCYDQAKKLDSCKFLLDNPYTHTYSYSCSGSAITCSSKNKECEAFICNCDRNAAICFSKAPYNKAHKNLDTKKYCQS

Cysteine protease ATG4B = molecular target: T1, Cysteine protease ATG4B (Homo sapiens, UniProt Q9Y4P1); format: functional;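 note: Fluorescence-based dose-response confirmation assay measuring inhibition of ATG4B activity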
T1 sequence (Q9Y4P1 whole entry): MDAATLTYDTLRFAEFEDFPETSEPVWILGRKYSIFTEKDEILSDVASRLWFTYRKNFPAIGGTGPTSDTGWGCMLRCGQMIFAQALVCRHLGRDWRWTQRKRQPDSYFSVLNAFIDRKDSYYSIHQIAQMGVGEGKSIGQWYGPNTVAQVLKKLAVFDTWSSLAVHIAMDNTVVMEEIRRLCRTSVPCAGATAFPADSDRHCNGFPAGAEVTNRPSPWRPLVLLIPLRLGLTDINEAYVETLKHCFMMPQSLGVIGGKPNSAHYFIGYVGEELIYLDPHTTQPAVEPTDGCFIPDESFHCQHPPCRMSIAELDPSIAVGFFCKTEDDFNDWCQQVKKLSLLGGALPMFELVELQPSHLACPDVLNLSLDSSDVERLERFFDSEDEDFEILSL

[7] = molecular target: T2, Probable nicotinate-nucleotide adenylyltransferase (Staphylococcus aureus (strain N315), UniProt P65502); format: functional, Staphylococcus aureus subsp. aureus N315; settings: read-out: IC50_Mean;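 for IC50 Mean: confirmatory dose-response retesting of NadD inhibitor hits first found in an ultra-high-throughput screen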
T2 sequence (P65502 whole entry): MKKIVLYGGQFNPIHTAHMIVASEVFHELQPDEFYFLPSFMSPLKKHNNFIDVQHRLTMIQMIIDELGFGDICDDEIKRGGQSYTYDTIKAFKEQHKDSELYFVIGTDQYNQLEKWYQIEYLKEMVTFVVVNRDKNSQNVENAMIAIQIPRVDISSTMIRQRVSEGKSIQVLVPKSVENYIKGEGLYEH

[8] = molecular target: T2, Probable nicotinate-nucleotide adenylyltransferase; format: functional, Staphylococcus aureus subsp. aureus N315
INS1 = assay: INS-1E survival protection against cytokine death – cell-based, luminescence, retest, dose response (AID 449756); format: functional; settings: Rattus norvegicus;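 note: cell death triggered by IL-1 beta plus TNF-alpha plus IFN-gamma mixture; protective hits raise ATP signal compared with cytokine alone wells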
Streptococcus = assay: GAS UMAA2166 growth inhibition – luminescence, BacTiterGlo, counter-screen for streptokinase expression inhibitor project, dose response (AID 1915); format: functional, organism-based;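 note: potency for reduction of bacterial viability or growth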
[9] = test system: Streptococcus sp. 'group A'; assay: Streptococcus pyogenes SK(-)GAS viability under kanamycin – luminescence, BacTiterGlo, confirmation, counter-screen for streptokinase expression inhibitor project, dose response (AID 1900); format: functional, organism-based
[10] = molecular target: T3, DNA repair protein RAD52 homolog (Homo sapiens, UniProt P43351); format: functional, biochemical
T3 sequence (P43351 whole entry): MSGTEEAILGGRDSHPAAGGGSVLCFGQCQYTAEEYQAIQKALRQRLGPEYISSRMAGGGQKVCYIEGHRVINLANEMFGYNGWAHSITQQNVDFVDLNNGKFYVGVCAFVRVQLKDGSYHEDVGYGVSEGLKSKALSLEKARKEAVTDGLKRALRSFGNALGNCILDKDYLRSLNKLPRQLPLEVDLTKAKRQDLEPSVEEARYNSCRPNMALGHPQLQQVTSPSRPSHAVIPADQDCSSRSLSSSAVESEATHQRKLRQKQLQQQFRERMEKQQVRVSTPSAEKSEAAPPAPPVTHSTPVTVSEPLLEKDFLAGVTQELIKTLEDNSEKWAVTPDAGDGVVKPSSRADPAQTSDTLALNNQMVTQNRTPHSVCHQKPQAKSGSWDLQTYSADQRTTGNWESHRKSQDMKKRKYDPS

[11] = molecular target: T4, DNA repair and recombination protein RAD54-like (Homo sapiens, UniProt Q92698); assay: RAD54 Holliday junction migration blockers – biochemical, fluorescence, cherry-picked samples, dose series, confirmation (AID 651657); format: functional
T4 sequence (Q92698 whole entry): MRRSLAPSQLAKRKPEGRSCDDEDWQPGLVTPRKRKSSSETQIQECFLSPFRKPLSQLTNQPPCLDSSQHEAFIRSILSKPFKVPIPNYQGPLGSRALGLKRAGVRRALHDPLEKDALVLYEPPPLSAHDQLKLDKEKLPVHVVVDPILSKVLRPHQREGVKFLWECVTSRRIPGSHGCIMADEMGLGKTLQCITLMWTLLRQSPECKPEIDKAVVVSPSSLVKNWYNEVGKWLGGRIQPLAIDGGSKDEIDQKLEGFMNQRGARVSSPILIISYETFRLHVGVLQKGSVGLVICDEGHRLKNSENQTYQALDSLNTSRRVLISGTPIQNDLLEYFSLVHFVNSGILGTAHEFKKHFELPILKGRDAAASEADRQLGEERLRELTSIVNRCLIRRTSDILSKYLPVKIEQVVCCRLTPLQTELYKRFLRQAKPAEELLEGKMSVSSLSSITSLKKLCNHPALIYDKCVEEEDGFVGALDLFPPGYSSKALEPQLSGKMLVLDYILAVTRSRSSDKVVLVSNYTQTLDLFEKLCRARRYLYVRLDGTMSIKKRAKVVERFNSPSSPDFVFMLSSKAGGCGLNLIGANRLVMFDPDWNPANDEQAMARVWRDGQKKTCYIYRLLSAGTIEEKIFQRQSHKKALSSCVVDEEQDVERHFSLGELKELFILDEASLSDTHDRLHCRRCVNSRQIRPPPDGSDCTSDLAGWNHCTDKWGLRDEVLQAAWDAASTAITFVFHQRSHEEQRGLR

[12] = molecular target: T5, COUP transcription factor 2 (Homo sapiens, UniProt P24468); assay: Luminescence-based cell-based high throughput dose response assay to identify inhibitors of COUP-TFII (NR2F2).; format: functional;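 note: HEK293 cells transiently cotransfected with COUP-TFII expression vector and reporter; luciferase reporter luminescence driven by COUP-TFII from the pX2-168 reporter plasmid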
T5 sequence (P24468 whole entry): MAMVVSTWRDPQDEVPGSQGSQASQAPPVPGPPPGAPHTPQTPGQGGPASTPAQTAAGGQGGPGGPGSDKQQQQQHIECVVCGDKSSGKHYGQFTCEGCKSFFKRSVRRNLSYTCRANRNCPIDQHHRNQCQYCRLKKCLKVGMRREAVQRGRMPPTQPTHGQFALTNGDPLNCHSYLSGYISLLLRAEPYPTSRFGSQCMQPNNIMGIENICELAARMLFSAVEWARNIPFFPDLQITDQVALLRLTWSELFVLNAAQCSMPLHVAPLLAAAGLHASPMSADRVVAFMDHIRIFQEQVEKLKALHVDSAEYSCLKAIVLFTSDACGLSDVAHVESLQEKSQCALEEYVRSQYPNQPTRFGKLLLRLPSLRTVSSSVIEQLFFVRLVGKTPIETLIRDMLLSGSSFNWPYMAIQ

Protein Wnt-3a = Protein Wnt-3a (Mus musculus, UniProt P27467); assay: antagonism of Wnt3a pathway luciferase reporter – Wnt-LIGHT cells, luminescence, selectivity assay for Gli-SUFU antagonist project, dose response (AID 651570); format: functional; settings: read-out: IC50_Mean;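 note: Wnt-LIGHT reporter cells stimulated with conditioned medium from Wnt3a-producing cells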
Chain of Protein Wnt-3a (P27467 whole entry): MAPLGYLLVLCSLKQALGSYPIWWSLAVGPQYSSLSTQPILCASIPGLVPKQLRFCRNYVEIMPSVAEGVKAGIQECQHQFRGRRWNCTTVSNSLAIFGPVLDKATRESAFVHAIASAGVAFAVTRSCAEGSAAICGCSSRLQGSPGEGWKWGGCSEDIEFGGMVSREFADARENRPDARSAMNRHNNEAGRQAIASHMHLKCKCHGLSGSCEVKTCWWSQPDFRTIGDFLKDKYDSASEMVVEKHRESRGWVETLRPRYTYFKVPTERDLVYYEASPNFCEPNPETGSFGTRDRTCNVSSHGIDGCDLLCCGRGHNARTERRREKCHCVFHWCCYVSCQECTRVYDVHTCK

[13] = NIH3T3 cell viability loss – ATP luminescence, mouse fibroblasts, counter-screen, dose response (AID 2010); format: functional, cell-based;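 note: cells exposed to compound for about 90 hours before reading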
[14] = NIH-3T3 fibroblast cytotoxicity, dose response, cytotoxicity control, cell-based, fluorescence, Alamar Blue, secondary assay (AID 2327); format: functional;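 note: NIH-3T3 mouse fibroblasts cultured with fluconazole at 8 µg/mL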
[15] = Trypanosoma cruzi growth suppression in host cells – NIH3T3 host cells, beta-gal luminescence, confirmation (AID 2044); format: functional, cell-based;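 note: intracellular parasites grown in NIH/3T3 mouse fibroblasts as host cells; luminescent beta-galactosidase reporter signal from transgenic T. cruzi replicating inside host cells; inhibitors lower the luminescence signal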
[16] = fluconazole-exposed Candida albicans growth modulators – fluorescence, retest, confirmation (AID 2467); format: functional, cell-based
[17] = molecular target: T6, Serine/threonine-protein phosphatase (Candida dubliniensis (strain CD36 / CBS 7987 / NCPF 3949 / NRRLY-17841) (Yeast), UniProt B9W6M3); assay: blockers of CaCl2-induced CDRE-lacZ signaling – S. cerevisiae, luminescence, secondary, dose response (AID 2388); format: functional, cell-based;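 note: yeast reporter cells carrying a calcineurin-responsive lacZ construct stimulated with calcium chloride; luminescent beta-galactosidase reporter signal in whole cells rather than isolated phosphatase activity; potency for inhibition where a drop in reporter signal means calcineurin blockade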
T6 sequence (B9W6M3 whole entry): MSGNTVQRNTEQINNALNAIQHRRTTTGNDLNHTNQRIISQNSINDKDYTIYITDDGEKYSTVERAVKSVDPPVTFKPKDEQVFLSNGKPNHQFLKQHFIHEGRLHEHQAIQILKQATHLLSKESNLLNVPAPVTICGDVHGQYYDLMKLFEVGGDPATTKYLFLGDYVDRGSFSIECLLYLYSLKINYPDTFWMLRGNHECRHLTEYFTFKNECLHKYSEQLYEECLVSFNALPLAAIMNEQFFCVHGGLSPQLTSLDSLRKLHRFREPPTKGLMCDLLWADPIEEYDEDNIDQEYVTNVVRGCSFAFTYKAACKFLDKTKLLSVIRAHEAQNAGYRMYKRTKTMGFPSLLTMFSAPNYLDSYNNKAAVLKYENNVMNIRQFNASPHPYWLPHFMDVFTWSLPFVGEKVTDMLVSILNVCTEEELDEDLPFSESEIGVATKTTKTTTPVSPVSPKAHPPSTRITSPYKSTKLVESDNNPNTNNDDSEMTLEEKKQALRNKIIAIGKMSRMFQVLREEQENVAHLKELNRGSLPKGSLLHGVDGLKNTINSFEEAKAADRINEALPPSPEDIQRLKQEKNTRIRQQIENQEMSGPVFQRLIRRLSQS

[18] = molecular target: ATP-dependent molecular chaperone HSP82 (Candida albicans (strain WO-1) (Yeast), UniProt C4YTQ8); assay: steroid-induced GRE reporter decrease in yeast – S. cerevisiae, luminescence, Hsp90 inhibitor project, dose response (AID 2400); format: functional, cell-based;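 note: beta-galactosidase luminescence from glucocorticoid response element reporter as proxy for Hsp90 function; inhibitor potency where signal loss means Hsp90 inhibition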
Chain of ATP-dependent molecular chaperone HSP82 (C4YTQ8 whole entry): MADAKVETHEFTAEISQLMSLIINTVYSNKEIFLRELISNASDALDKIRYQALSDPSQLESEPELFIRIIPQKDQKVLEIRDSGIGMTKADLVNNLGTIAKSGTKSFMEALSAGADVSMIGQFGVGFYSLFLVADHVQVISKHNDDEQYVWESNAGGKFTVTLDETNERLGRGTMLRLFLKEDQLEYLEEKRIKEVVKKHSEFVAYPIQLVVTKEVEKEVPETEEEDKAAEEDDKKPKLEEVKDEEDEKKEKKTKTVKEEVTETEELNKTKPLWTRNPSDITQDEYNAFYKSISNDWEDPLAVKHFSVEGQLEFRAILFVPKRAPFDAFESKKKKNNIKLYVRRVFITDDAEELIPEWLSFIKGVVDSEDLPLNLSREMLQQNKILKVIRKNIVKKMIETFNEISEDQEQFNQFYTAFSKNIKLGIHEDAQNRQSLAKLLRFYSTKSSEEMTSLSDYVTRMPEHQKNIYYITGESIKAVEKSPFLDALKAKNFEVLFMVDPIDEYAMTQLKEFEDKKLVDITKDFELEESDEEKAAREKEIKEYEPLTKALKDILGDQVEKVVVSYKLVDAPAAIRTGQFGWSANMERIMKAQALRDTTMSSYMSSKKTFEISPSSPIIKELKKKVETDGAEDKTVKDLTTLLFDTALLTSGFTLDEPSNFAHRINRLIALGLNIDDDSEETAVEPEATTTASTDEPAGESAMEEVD

[19] = Luminescence Cell-Based Dose Confirmation HTS to Identify Inhibitors of Platelet Dense Granule Release. [Related pubchem assays: 1663 (Primary HTS), 1678 (Summary of Project)]; format: functional
[20] = molecular target: Luciferin 4-monooxygenase (Photinus pyralis, UniProt P08659); assay: inhibition of purified Photinus pyralis luciferase – biochemical, luminescence, dose response (AID 1891)
Chain of Luciferin 4-monooxygenase (P08659 whole entry): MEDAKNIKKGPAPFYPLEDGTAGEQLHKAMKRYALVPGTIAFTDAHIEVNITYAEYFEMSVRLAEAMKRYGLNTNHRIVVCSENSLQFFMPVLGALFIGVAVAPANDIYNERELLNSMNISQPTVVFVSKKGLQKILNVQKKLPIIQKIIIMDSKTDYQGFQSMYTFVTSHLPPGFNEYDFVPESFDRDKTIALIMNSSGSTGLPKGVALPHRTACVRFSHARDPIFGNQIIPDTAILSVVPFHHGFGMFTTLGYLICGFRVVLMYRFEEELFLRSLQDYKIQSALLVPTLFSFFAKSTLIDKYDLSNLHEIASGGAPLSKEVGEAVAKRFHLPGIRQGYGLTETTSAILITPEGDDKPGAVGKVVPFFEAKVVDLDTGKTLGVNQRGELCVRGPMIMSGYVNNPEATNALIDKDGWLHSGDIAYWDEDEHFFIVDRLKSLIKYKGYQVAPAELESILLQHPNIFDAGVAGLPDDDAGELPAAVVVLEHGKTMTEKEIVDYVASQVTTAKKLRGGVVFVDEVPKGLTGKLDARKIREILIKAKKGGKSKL

## C[C@@H]1C=CC(=O)O[C@@H]1c1ccc(Cl)cc1
[1]
  EC50: 5.84 µM (active)
BJ [2]
  EC50: 16.7 µM (active)
BJ [3]
  EC50: 23.8 µM (active)
BJ [4]
  EC50: 0.547 µM (active)
[5]
  IC50: > 80 µM (inactive)
BJ [6]
  EC50: 21.3 µM (active)

## Cc1ccccc1C(=O)c1c[nH]c(C(=O)NCc2ccco2)c1
HEK293
  AC50: 11.2 µM (active)

## CC1CC(C)CN(C(=O)C2CCN(S(=O)(=O)c3ccc4c(c3)CC(C)N4C(=O)C3CC3)CC2)C1 (stereo not given)
Phospholipase A2
  IC50: 7.55 µM (active)
Cysteine protease ATG4B
  IC50: 14.5 µM (active)

## CCCc1cc(=O)[nH]c(SCC(=O)N2N=C(c3ccc(Cl)cc3)CC2c2ccco2)n1 (stereo not given)
Phospholipase A2
  IC50: 16.6 µM (active)
Cysteine protease ATG4B
  IC50: 20.5 µM (inactive)
[7]
  IC50: 52.9 µM (active)
[8]
  IC50: 9.52 µM (active)

## COCCn1c(C)cc(C(=O)COC(=O)C23CC4CC(CC(O)(C4)C2)C3)c1C
HEK293
  AC50: 7.37 µM (active)

## Cc1cc(N/N=C\c2ccc(Br)cc2)nc(-n2nc(C)cc2C)n1
INS1
  AC50: 2.43 µM (active)
Streptococcus
  EC50: 3.74 µM (active)
[9]
  EC50: 1.01 µM (active)
HEK293
  AC50: 3.83 µM (active)

## COc1ccc(-c2nn(C)c3sc(C(=O)NCCN(C)C)cc23)cc1OC
[10]
  AC50: 2.35 µM (active)
[11]
  AC50: 6.36 µM (active)

## O=C(O)Cc1sc(NC2CCCCC2)nc1-c1ccc(Cl)cc1
Phospholipase A2
  IC50: 8.63 µM (active)
Cysteine protease ATG4B
  IC50: 21 µM (inactive)

## Cc1sc2ncnc(NCC3COc4ccccc4O3)c2c1C (stereo not given)
INS1
  AC50: 1.68 µM (active)
[12]
  IC50: 3.38 µM (active)
Protein Wnt-3a
  IC50: 0.441 µM (active)
HEK293
  AC50: 35.9 µM (active)

## COc1cccc(-c2cnc3c(NC(C)=O)cc(-c4cccc(C(=O)NCCN(C)C)c4)cn23)c1
[10]
  AC50: 2.42 µM (active)
[11]
  AC50: 26.7 µM (active)

## Cc1cccn2c(=O)c3cc(C(=O)NCCN4CCOCC4)c(=N)n(CCCN4CCOCC4)c3nc12
[10]
  AC50: 4.63 µM (active)
[11]
  AC50: 8.19 µM (active)

## O=C(COc1ccc(Cl)cc1)Nc1ccc(C(=O)NCc2cccnc2)cc1
INS1
  AC50: < 0.195 µM (active)
[1]
  EC50: > 150 µM (inconclusive)
BJ [2]
  EC50: 18.8 µM (inconclusive)
BJ [3]
  EC50: 2.87 µM (active)
BJ [4]
  EC50: 25.6 µM (active)
BJ [6]
  EC50: > 150 µM (not active)

## C[n+]1c2n(c3ccccc31)N=C(c1ccc(-c3ccccc3)cc1)CS2
INS1
  AC50: 1.32 µM (active)
[12]
  IC50: 5.03 µM (active)
Protein Wnt-3a
  IC50: 0.736 µM (active)
[13]
  EC50: 9.85 µM (active)
[14]
  EC50: > 160 µM (inactive)
[15]
  EC50: 0.376 µM (active)
[16]
  EC50: 0.452 µM (active)
[17]
  EC50: > 180 µM (inactive)
[18]
  EC50: > 160 µM (inactive)

## CCOC(=O)c1c(-c2ccccc2Cl)csc1NC(=O)CSc1nc(C)cc(=O)[nH]1
[7]
  IC50: 28.7 µM (active)
[8]
  IC50: 11.6 µM (active)

## CCOC(=O)c1c(-c2ccccc2Cl)cn2ccccc12
[14]
  EC50: > 160 µM (inactive)
[16]
  EC50: 3.75 µM (active)
[17]
  EC50: > 180 µM (inactive)
[18]
  EC50: 17.4 µM (active)

## COc1cccc(C2c3c(-c4cc(Cl)c(C)cc4O)n[nH]c3C(=O)N2Cc2cccnc2)c1 (stereo not given)
[19]
  EC50: 41.2 µM (active)
[20]
  EC50: > 112 µM (not active)
[7]
  IC50: 46 µM (active)
[8]
  IC50: 21.5 µM (active)
